Patent EP2739618B1, “QUINAZOLINE COMPOUNDS AS SERINE/THREONINE KINASE INHIBITORS” (Array Biopharma, Inc., priority 2011, dated 2013)
pIC50: −log10 of the molar value.

What follows are compounds tested against T1, human ERK-2 (Mitogen Activated Kinase 1) (Homo sapiens, UniProt P28482) (assay: ERK-2 Enzymatic Assay). Settings: TABLE I; 5nM ERK-2 enzyme, 25µM ATP, S/T17 peptide substrate; single assay or mean of multiple assays.
T1 construct: N-terminal 6-His fusion protein in E. coli and corresponding to aa 8-360; 6-His (N); made in house; host or cells: E. coli
Format: biochemical
Protocol: Compounds were tested in an enzymatic assay using human ERK-2 (Mitogen Activated Kinase 1), recombinantly expressed as an N-terminal 6-His fusion protein in E. coli and corresponding to aa 8-360. The substrate used was the fluorescent Omnia peptide S/T17 (Invitrogen of Carlsbad, CA; Cat. KNZ1171C). Test compounds were diluted in DMSO in 3-fold serial dilutions at 100x final concentrations. […] The assay was run at ambient temperature in a white 384-well polypropylene plate (Nunc, Inc of Naperville, IL; Cat. 267462) collecting data every 50 seconds for approximately 30 minutes on an Envision plate reader (PerkinElmer, Inc. of Waltham, MA); Excitation 340 nm/Emission 495 nm. The data collected from each well was fit to a straight line and the resulting rates were used to calculate percent of control. Percent of control was plotted against compound concentration and IC50 values were determined using a four-parameter fit. Representative data is in TABLE I and TABLE II. The reported IC50 may be from a single assay or the mean of multiple assays.

T1 sequence (P28482 8-360): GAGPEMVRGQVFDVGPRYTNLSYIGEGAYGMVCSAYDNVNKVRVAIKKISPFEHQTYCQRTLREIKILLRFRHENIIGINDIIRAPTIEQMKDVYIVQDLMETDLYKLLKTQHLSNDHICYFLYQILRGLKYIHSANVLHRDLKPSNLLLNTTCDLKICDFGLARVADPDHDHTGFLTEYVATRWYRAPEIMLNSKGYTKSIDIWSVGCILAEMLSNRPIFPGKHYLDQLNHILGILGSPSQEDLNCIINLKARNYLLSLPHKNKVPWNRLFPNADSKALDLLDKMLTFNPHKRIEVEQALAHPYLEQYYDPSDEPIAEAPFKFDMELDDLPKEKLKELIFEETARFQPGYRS

pIC50	Structure (SMILES)
8.17	O=C(N[C@@H](c1ccc(F)c(Cl)c1)[C@@H]1CCNC1)c1ccc2cnc(NC3CCOCC3)nc2c1 [Compound I-8, 2-(tetrahydropyran-4-ylamino)-quinazoline-7-carboxylic acid [(R)-(3-chloro-4-fluoro-phenyl)-(R)-pyrrolidin-3-yl-methyl]-amide]
8.27	O=C(N[C@H](c1ccc(F)c(Cl)c1)[C@H]1CCNC1)c1ccc2cnc(NC3CCOCC3)nc2c1 [Compound I-10, 2-(tetrahydropyran-4-ylamino)-quinazoline-7-carboxylic acid [(S)-(3-chloro-4-fluoro-phenyl)-(S)-pyrrolidin-3-yl-methyl]-amide]
8.30	Cn1ccc(C(NC(=O)c2ccc3cnc(NC4CCOCC4)nc3c2)c2ccc(Cl)c(F)c2)n1 (stereo not drawn) [Compound I-4, 2-(tetrahydropyran-4-ylamino)-quinazoline-7-carboxylic acid [(4-chloro-3-fluoro-phenyl)-(1-methyl-1H-pyrazol-3-yl)-methyl]-amide]
8.17	O=C(N[C@H](c1ccc(F)c(Cl)c1)[C@@H]1CCNC1)c1ccc2cnc(NC3CCOCC3)nc2c1 (stereo in doubt) [Compound I-9, 2-(tetrahydropyran-4-ylamino)-quinazoline-7-carboxylic acid [(R)-(3-chloro-4-fluoro-phenyl)-(S)-pyrrolidin-3-yl-methyl]-amide]
7.51	COc1ccc([C@@H](NC(=O)c2cc(F)c3cnc(NC4CCOCC4)nc3c2)c2cnn(C)n2)cc1F [Compound I-54, 5-Fluoro-2-(tetrahydro-pyran-4-ylamino)-quinazoline-7-carboxylic acid [(R)-(3-fluoro-4-methoxy-phenyl)-(2-methyl-2H-[1,2,3]triazol-4-yl)-methyl]-amide]
8.40	COc1ccc([C@H](NC(=O)c2cc(F)c3cnc(N[C@@H]4CCOC[C@@H]4F)nc3c2)c2cnn(C)c2)cc1F [Compound I-70]
8.96	Cn1cc([C@H](NC(=O)c2ccc3cnc(NC4CCOCC4)nc3c2)c2ccc(C#N)c(Cl)c2)cn1 (stereo in doubt) [Compound I-48, (R)-N-((3-chloro-4-cyanophenyl)(1-methyl-1H-pyrazol-4-yl)methyl)-2-(tetrahydro-2H-pyran-4-ylamino)quinazoline-7-carboxamide]
8.40	COc1ccc([C@H](NC(=O)c2cc(F)c3cnc(NCC4COC4)nc3c2)c2cnn(C)c2)cc1F [Compound I-63, 5-Fluoro-2-[(oxetan-3-ylmethyl)-amino]-quinazoline-7-carboxylic acid [(S)-(3-fluoro-4-methoxy-phenyl)-(1-methyl-1H-pyrazol-4-yl)-methyl]-amide]
8.09	COc1ccc([C@@H](NC(=O)c2ccc3cnc(NC4CCOCC4)nc3c2)[C@@H]2CCCN2)cc1F (stereo in doubt) [Compound I-24, 2-(tetrahydropyran-4-ylamino)-quinazoline-7-carboxylic acid [(S)-(3-fluoro-4-methoxy-phenyl)-(R)-pyrrolidin-2-yl-methyl]-amide]
8.82	COc1ccc([C@H](NC(=O)c2cc(F)c3cnc(NC4CCOCC4)nc3c2)c2cnn(C)c2)cc1F [Compound I-33, 5-fluoro-2-(tetrahydropyran-4-ylamino)-quinazoline-7-carboxylic acid [(S)-(3-fluoro-4-methoxy-phenyl)-(1-methyl-1H-pyrazol-4-yl)-methyl] -amide]
8.89	Cn1cc([C@@H](NC(=O)c2cc(F)c3cnc(NC4CCOCC4)nc3c2)c2cccc(F)c2)cn1 [Compound I-68]
8.17	COc1ccc(C(NC(=O)c2cc(F)c3cnc(NC4CCOCC4)nc3c2)c2cnn(C)n2)cc1F (stereo not drawn) [Compound I-53, 5-Fluoro-2-(tetrahydro-pyran-4-ylamino)-quinazoline-7-carboxylic acid [(3-fluoro-4-methoxy-phenyl)-(2-methyl-2H-[1,2,3]triazol-4-yl)-methyl]-amide]
8.77	COc1ccc([C@H](NC(=O)c2ccc3cnc(NC4CCOCC4)nc3c2)[C@H]2C[C@H](F)CN2)cc1F [Compound I-31, 2-(tetrahydropyran-4-ylamino)-quinazoline-7-carboxylic acid [(S)-(3-fluoro-4-methoxy-phenyl)-((2R,4S)-4-fluoro-pyrrolidin-2-yl)-methyl]-amide]
8.57	Cn1cc([C@@H](NC(=O)c2ccc3cnc(NC4CCOCC4)nc3c2)c2ccc(F)c(Cl)c2)cn1 [Compound I-55, 2-(Tetrahydro-pyran-4-ylamino)-quinazoline-7-carboxylic acid [(S)-(3-chloro-4-fluoro-phenyl)-(1-methyl-1H-pyrazol-4-yl)-methyl]-amide]
9.00	COc1ccc([C@H](NC(=O)c2ccc3cnc(NC4CCOCC4)nc3c2)c2cnn(C)c2)cc1Cl [Compound I-44, 2-(tetrahydro-pyran-4-ylamino)-quinazoline-7-carboxylic acid [(S)-(3-chloro-4-methoxy-phenyl)-(1-methyl-1H-pyrazol-4-yl)-methyl]-amide]
9.22	COc1ccc([C@H](NC(=O)c2cc(F)c3cnc(NC4CCOCC4)nc3c2)c2cnn(C)c2)cc1Cl [Compound I-66, 5-Fluoro-2-(tetrahydro-pyran-4-ylamino)-quinazoline-7-carboxylic acid [(S)-(3-chloro-4-methoxy-phenyl)-(1-methyl-1H-pyrazol-4-yl)-methyl]-amide]

Same assay, conditions: TABLE II; 5nM ERK-2 enzyme, 25µM ATP, S/T17 peptide substrate; single assay or mean of multiple assays

pIC50	Structure (SMILES)
8.85	COc1ccc([C@H](NC(=O)c2cc(F)c3cnc(NC4CCOCC4)nc3c2)c2cnnn2C)cc1F [II-48]
8.32	COc1ccc([C@H](NC(=O)c2ccc3cnc(Nc4ccnc(C)c4)nc3c2)c2cnn(C)c2)cc1F [II-17]
6.00	COc1ccc([C@H](NC(=O)c2ccc3cnc(N[C@H]4C[C@H]5C[C@@H]4CO5)nc3c2)c2cnn(C)c2)cc1F [II-30]
8.28	Cn1cc([C@@H](NC(=O)c2ccc3cnc(NC4CCOCC4)nc3c2)c2ccc(C(F)(F)F)c(F)c2)cn1 [II-41]
8.44	COc1ccc([C@H](NC(=O)c2ccc3cnc(N[C@H]4CCOC[C@@H]4F)nc3c2)c2ccnn2C)cc1F [II-37]
8.42	COc1ccc([C@H](NC(=O)c2ccc3cnc(N[C@H]4CCOC[C@H]4F)nc3c2)c2ccnn2C)cc1F [II-36]
7.86	COc1ccc([C@H](NC(=O)c2ccc3cnc(NC4CC(OC)C4)nc3c2)c2cnn(C)c2)cc1F (stereo partly drawn) [II-10]
7.80	COc1ccc([C@@H](NC(=O)c2cc(F)c3cnc(NC4CCOCC4)nc3c2)c2cnn(C)c2)cc1F [II-4]
8.64	COc1ccc([C@H](NC(=O)c2cc(F)c3cnc(N[C@@H](C)CO)nc3c2)c2cnn(C)c2)cc1F [II-21]
6.82	COc1ccc([C@H](NC(=O)c2cc(F)c3cnc(NC4CCOCC4)nc3c2)c2cnn(C)c2)nc1 [II-14]
8.82	COc1ccc([C@H](NC(=O)c2cc(F)c3cnc(Nc4ccnn4C)nc3c2)c2cncn2C)cc1F [II-53]
6.02	COc1ccc([C@H](NC(=O)c2ccc3cnc(Nc4cn(C)nc4C)nc3c2)c2cnn(C)c2)cc1F [II-27]
8.72	COc1ccc([C@H](NC(=O)c2cc(F)c3cnc(NC4CCOCC4)nc3c2)c2nccn2C)cc1F [II-52]
8.89	COc1ccc([C@H](NC(=O)c2cc(F)c3cnc(NC4CCOCC4)nc3c2)c2cnco2)cc1F [II-47]
7.21	COc1ccnc(C(NC(=O)c2cc(F)c3cnc(NC4CCOCC4)nc3c2)c2cnn(C)c2)c1 (stereo not drawn) [II-35]
6.79	COc1ccc([C@H](NC(=O)c2cc(F)c3cnc(NC4CCOCC4)nc3c2)c2c[nH]c(C)n2)cc1F [II-51]

Structure (SMILES)	pIC50
COc1ccc([C@H](NC(=O)c2cc(F)c3cnc(N[C@H]4C[C@@H](F)C4)nc3c2)c2cnn(C)c2)cc1F [II-33]	8.42
